The source of these data is patent US8178704B2, “Inositol-phosphate derivatives and method of detecting inositol-1-phosphate” (CIS Bio International, priority 2004, dated 2012).

In experiment [1] the test system is anti-IP1 antibody labeled with europium cryptate. Nature of the experiment: HTRF test, specificity of the anti-IP1 antibodies (competition with IP1-CY5). The format is binding. To be noted: competition with IP1-CY5 conjugate; FIG. 12. The protocol:
All the solutions are prepared in 100 mM HEPES buffer pH 7 containing 0.1% BSA and 0.4 M KF.NB. 50 μl of solution of competitors are distributed into the wells of a black bottom microtiter plate so as to obtain the following final concentrations: myo-inositol (10 nM to 1 mM), IP1 Sigma (1 nM to 1 mM), IP2 (1 nM to 100 μM), IP3 (1 nM to 100 μM), PiP2 (1 nM to 100 μM). 50 μl of a 10 nM solution of IP1-CY5 conjugate of Example 10, 50 μl of a solution containing 1.5 nM of an anti-IP1 antibody labeled beforehand with europium cryptate are then distributed in the order indicated. Two wells are also distributed in which the 50 μl of competitors are replaced with 50 μl of buffer so as to constitute blanks (negative controls). The mixture is incubated for 2 h at 4° C. and a time-resolved fluorescence measurement is performed (td=50 μs, tg=400 μs) at 620 nm and 665 nm on a Rubystar® apparatus (BMG Labtech). The ΔF values are calculated using the blank values as reference. The percentages of inhibition obtained with the various competitors are then calculated with the delta F values taking, as 100% value, the signal obtained in the presence of an excess of the IP1 competitor.
A general note: In TR-FRET formats the signal depends on donor and acceptor labels being close together.

The next experiment deals with anti-IP1 antibodies. In words: Specificity of the anti-IP1 antibodies evaluated by competition ELISA. The following applies: competition with plate-bound IP1-biotin; competitors 1 nM to 100 μM (myo-inositol 10 nM to 1 mM). Format: binding, mouse. As for the experimental part:
NUNC 96-well microtiter plates coated with streptavidin (13 pmol/well) are used. 100 μl of IP1-biotin conjugate prepared according to Example 9 at a concentration of 0.25 μg/ml are distributed and the mixture is incubated for 2 h 30 min at room temperature with stirring. The mixture is washed three times with water containing 0.1% Tween20. 50 μl of solutions of competitors are added so as to prepare the following final concentration ranges: myo-inositol (10 nM at 1 mM), IP1 Sigma (1 nM to 100 μM), IP2 (1 nM to 100 μM), IP3 (1 nM to 100 μM), PiP2 (1 nM to 100 μM) as well as 50 μl of culture supernatants secreting anti-IP1 antibodies. The mixture is incubated for 16 h at 4° C. and then washed three times with water containing 0.1% Tween20. 100 μl of conjugate anti-IgG (mouse)-peroxidase (Sigma # A 0168) diluted 1/60 000 in PBS 0.3% BSA are added. The mixture is incubated for 1 h at room temperature with stirring and then three washes are performed with 10 PBS 0.1% Tween20. 100 μl of TMB substrate (Sigma # T 8665) are distributed and the mixture is incubated for 30 min at room temperature with stirring and then 100 μl of stop reagent (Sigma # S5814) are distributed and the optical densities are measured at 450 nm.
The optical density at 450 nm is plotted against the logarithm of the concentration of compound whose competition it is desired to test. For all the compounds tested in competition, the maximum optical density OD450˜1.5 is observed at the lowest concentrations (1 nM).
(ELISA stands for enzyme-linked immunosorbent assay.)

The test system of another experiment is mGlu5 receptor. In words: IP1 assay (TR-FRET) on HEK-293 cells expressing the mGlu5 receptor, effect of an inverse agonist. The format is cell-based. The following applies: MPEP 5 nM to 100 μM, 1 hour; FIGS. 16A, 16B.
The target in the next experiment is T1, mGlu1 receptor (Homo sapiens, UniProt Q13255).
T1 construct: expressed in transfected cells; host or cells: HEK-293 cells, transient, electroporation
T1 sequence (Q13255 19-1194): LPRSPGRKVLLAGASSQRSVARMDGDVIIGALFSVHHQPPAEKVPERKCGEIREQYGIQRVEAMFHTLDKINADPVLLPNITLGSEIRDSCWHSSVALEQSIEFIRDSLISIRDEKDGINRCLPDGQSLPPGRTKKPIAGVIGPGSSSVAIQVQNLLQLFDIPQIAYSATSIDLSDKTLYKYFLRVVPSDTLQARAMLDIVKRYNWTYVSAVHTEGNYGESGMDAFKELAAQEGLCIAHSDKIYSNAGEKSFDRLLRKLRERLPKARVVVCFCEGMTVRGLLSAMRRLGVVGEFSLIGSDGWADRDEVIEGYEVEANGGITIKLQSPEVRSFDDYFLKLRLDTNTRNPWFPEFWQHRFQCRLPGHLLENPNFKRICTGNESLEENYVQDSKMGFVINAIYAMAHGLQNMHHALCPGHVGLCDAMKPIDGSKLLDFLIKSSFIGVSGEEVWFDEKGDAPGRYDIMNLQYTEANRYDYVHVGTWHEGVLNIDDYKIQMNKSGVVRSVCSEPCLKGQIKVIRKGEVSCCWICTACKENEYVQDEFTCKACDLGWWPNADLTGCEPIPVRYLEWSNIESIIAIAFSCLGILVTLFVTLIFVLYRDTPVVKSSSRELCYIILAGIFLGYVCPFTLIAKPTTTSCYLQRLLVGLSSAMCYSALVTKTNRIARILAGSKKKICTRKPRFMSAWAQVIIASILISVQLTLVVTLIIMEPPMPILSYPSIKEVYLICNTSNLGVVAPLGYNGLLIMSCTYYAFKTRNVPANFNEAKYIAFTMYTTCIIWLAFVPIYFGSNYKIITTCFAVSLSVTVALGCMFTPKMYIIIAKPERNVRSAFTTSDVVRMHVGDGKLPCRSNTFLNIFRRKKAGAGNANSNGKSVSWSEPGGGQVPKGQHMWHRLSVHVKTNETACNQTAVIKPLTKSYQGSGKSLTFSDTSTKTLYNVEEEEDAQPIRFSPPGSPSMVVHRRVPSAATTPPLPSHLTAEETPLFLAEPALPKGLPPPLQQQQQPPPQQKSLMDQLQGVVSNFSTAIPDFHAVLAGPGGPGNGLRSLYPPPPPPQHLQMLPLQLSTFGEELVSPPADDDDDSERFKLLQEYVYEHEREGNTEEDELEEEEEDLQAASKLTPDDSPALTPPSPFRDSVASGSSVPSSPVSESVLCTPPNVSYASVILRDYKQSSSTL
In words: IP1 assay (TR-FRET) on HEK-293 cells transiently expressing the mGlu1 receptor, effect of a positive allosteric modulator. Format: cell-based. The following applies: Ro 01-6128 100 nM to 3 mM, 30 min; FIGS. 15A, 15B. The protocol: Incubation is performed for 3 h at 37° C., 5% CO2, saturated with moisture, before changing the medium for 100 μl of DMEM containing glutamax (glutamine not degradable to glutamate) and free of serum. Incubation is performed overnight at 37° C. in an incubator containing 5% CO2, saturated with moisture.
This signal may be either the intensity ratio E665/E620, or the delta F.

Entries after “also recorded” stand apart in the source; their conditions may differ.

Method for mGlu5 receptor: Incubation is performed for 1 hour at 37° C., 5% CO2.
When the constitutive activity of the mGluR5 receptor is blocked by the addition of MPEP, that will lead to a decrease in the production of intracellular IP1. […] This signal may be either the intensity ratio E665/E620 or the delta F.

Consider `O=P(O)(O)OC1[C@H](O)[C@H](O)C(O)[C@H](O)[C@H]1O` (stereo partly drawn) [IP1], for which the “inhibition of the signal by the competitor (HTRF, delta F)” value in experiment [1] is listed as “only the use of IP1 as competitor makes it possible to measure inhibition of the signal”. Further, in the experiment on anti-IP1 antibodies, the “decrease in the signal (optical density at 450 nm) caused by the competitor” value (shortened to “decrease in the signal”) is reported as “induces a reduction in the signal for concentrations below the micromolar range; also recorded: only the use of IP1 as competitor makes it possible to measure inhibition of the signal”.

With `Cc1cccc(C#Cc2ccccc2)n1` [MPEP, 2-methyl-6-(phenylethynyl)pyridine], in the experiment on mGlu5 receptor, the “TR-FRET signal (E665/E620 ratio or delta F) as a function of inverse agonist concentration” value is “the signal for the assay will increase as a function of the concentration of inverse agonist”.

For `CCOC(=O)NC(=O)C(c1ccccc1)c1ccccc1` [PAM], the “TR-FRET signal (E665/E620 ratio or delta F) as a function of PAM concentration” value at mGlu1 receptor is “the signal will decrease as a function of the PAM concentration”.

Regarding `O[C@H]1[C@H](O)[C@@H](O)[C@H](O)[C@@H](O)[C@H]1O` [myo-inositol], in the experiment with anti-IP1 antibodies, the “decrease in the signal” value was “does not cause a decrease in the signal even at concentrations of 1 mM”.

For “phosphatidylinositol 4,5-biphosphate [PIP2]”, the “decrease in the signal” value in the experiment with anti-IP1 antibodies is reported as “not recognized by the antibody”.
